From patent publication US20250381274A1 (priority 2022, published 2025)
Where “and” joins values, the source holds several entries; their conditions need not be identical. Identical values can stand only once. Entries after “also recorded” stand apart in the source; their conditions may differ. Like-named read-outs stand apart in the source and are kept apart here.

Legend:
[1] = test system: corneal buttons; set-up: species or system rabbit
Protocol: • 3 rabbits, (n=8 pairs of 3 mm biopsy punched corneal buttons) • Laser Treatments: • Fidelity II, 1069 nm, 450 mW • Focusing: Marker/spark around, not touching the tissue • Objective: ZEISS 40X, NA=0.1463 • Z: increments 20 μm, 5 layers (several intervals) • 1stlayer 15 μm below surface of focus sparking • XY: 10 μm zigzag grid, 3 mm radius circle • With ˜12 gram compression • Motor speed 2.6 mm/s, full circle treatments: ˜25*5 mins • Sample Preparation: • −3 mm biopsy punch (1BT) • not connected to IV system • Prior to LT: 30 mins in 20% w/w Dextran 500 in PBS • 30 mins in 20% w/w ribose in DPBS (˜1.7M) • Post LT: Trypan blue is used to mark endothelium side • Imaged on the same day in DPBS • Overnight storage in DPBS in 4C fridge • 3 hrs prior to indentation, in room temp PBS • Piuma nano-indentation: • For each cornea button, the average of up to 16 indentations are acquired as
• 3 rabbits, (n=10 pairs of 3 mm biopsy punched corneal buttons) • 3 mm biopsy punch • not connected to IV system • Treatment Protocol-1 hr submerged in 20% w/v Ribose for all samples • 1 hr of UV-A lamp irradiation (control was not under UV) • Post Treatment Trypan blue is used to mark endothelium side • Imaged on the same day in DPBS • Overnight storage in DPBS in 4C fridge • 3 hrs prior to indentation, in room temp PBS • Piuma nano-indentation: • For each cornea button, the average of up to 16 indentations are acquired as representative modulus • The average of the representative modulus are presented in appended FIGS. 1-25.
Nano-Indentation: The corneal buttons were stored in PBS in a 4C fridge overnight for hydration equilibrium. Indentations of 5 μm depth using 29-35 μm diameter spherical indenters were performed on the anterior surface of the cornea buttons to acquire 25-second load-relaxation curves. For each button, the average of up to 16 indentations was used as the representative result. The equilibrium modulus and the viscoelastic ratio, defined as equilibrium modulus over instantaneous modulus, were calculated and compared.
Nanoindentation: Indentations were performed on the anterior surface of the cornea buttons. The equilibrium modulus E∞, instantaneous modulus Eo, and the viscoelastic ratio E∞/Eo, were calculated and compared.
After overnight incubation in PBS at 4C to reach equilibrium hydration, corneal buttons in Group A were allowed to return to room temperature the next morning after the respective treatment days while glued to the bottom of a petri-dish with the anterior surface of the corneal button facing upward. A displacement-controlled indenter (Piuma, Optics 11, Amsterdam, The Netherlands) was used to perform micro-indentations on top of the sample surface submerged in PBS; for each sample, multiple tests were performed following an array of 16 equally spaced (4×4) contact points with a spacing of 100 μm to 150 μm, covering roughly a 0.4×0.4 mm^2 area at the center of each corneal button. A spherical glass probe with a 34 μm radius and 0.2 N/m stiffness was used for samples in Group 1A; another spherical glass probe with a 25.5 μm radius and 4.09 N/m stiffness was used for Group 1B, 1C, 1D, and 2C. The indentation process at each contact point was comprised of three consecutive steps of loading Piezo movement of 5 μm for 2 seconds, holding time of 5 s, and unloading for 2 seconds. The load-relaxation curves obtained after indenting each point were then processed using a viscoelastic model to obtain equilibrium modulus and viscoelastic ratio following a fitting algorithm developed by Oyen.

[2] = test system: cornea; experiment: Optical coherence tomography, corneal apical thickness; set-up: species or system rabbit; conditions: for sustained thickness change, treated vs control / thickness increase compared to the baseline: final time point; for thickness increase compared to the baseline: all eyes (treated and control)
Protocol: In Group2 (n=15 rabbits), to assess corneal flattening, 24 intact eyeballs (12 rabbits) were enucleated and placed into a custom-build holder such that one eye was subject to ROS-Glycation-CXL, and the other served as a paired control. After 1 hr incubation in 20% ribose PBS, all apical eyeballs were pressed with a coverslip until the contact between the cornea and the coverslip reached approximately 3 mm in diameter until the treatment finished. Group 2A's (n=6 pairs) treated eyes were exposed to 1.5 hours of UVA lamp irradiation, whereas Group 2 B's (n=6 pairs) treated eyes were exposed to 3 hours of UVA lamp irradiation. Intraocular pressure was kept at 18-20 mm H2O through an IV system with needles connecting at the posterior side of the eyeball. In order to investigate the mechanical difference between the 1.5 hrs and 3 hrs irradiation groups, Group 2C's (n=3 pairs) corneas went through similar preparations as Group 1 corneas did such that the two treatments with different irradiation times were applied to the pair of eyes from the same animal. The corneas' cross-section and apical thickness were measured using an optical coherence tomographer (OQ LabScope Lumedica, North Carolina, USA) at the same time points described above. The thickness of the corneas was first segmented in ImageJ and calculated using a constant pixel-to-length conversion factor.

[3] = 20% ribose 1 hr + 365 nm UVA lamp 1 hr
[4] = 20% ribose + 400 nm femtosecond laser
[5] = 20% ribose + 1069 nm femtosecond laser
[6] = 20% ribose + 1069 nm femtosecond laser, listed as Ribose

O=C[C@H](O)[C@H](O)[C@H](O)CO [ribose]
instantaneous modulus change vs paired control [1, 3]: significantly increased
viscoelastic ratio change vs paired control (words) [1, 3]: no change; also recorded: no significant E∞/Eo difference; also recorded: No significant changes; also recorded: None of the ROS-Glycation-CxL treatments produced a significant difference
equilibrium modulus change vs paired control (words) ([1]; 20% ribose 1 hr + 365 nm UVA lamp 1 hr, coverslip): significantly increased; also recorded: significantly higher; also recorded: statistically significant differences
equilibrium modulus change vs paired control (words) ([1]; 20% ribose 1 hr + 365 nm UVA lamp 1 hr, coverslip, listed as Ribose): significantly increased
viscoelastic ratio change vs paired control (words) ([1]; 20% ribose 1 hr + 365 nm UVA lamp 1 hr, listed as Ribose): not significantly changed
equilibrium modulus change vs paired control (words) [1, 4]: significantly higher; also recorded: statistically significant differences
viscoelastic ratio change vs paired control (words) [1, 4]: No significant changes; also recorded: None of the ROS-Glycation-CxL treatments produced a significant difference
equilibrium modulus change vs paired control (words) [1, 5]: significantly higher; also recorded: statistically significant differences
instantaneous modulus change vs paired control [1, 5]: significantly increased
viscoelastic ratio change vs paired control (words) [1, 5]: No significant changes; also recorded: None of the ROS-Glycation-CxL treatments produced a significant difference
equilibrium modulus change vs paired control (words) [1, 6]: significantly increased
viscoelastic ratio change vs paired control (words) [1, 6]: not significantly changed
equilibrium modulus ([1]; Group 1A: 20% ribose PBS 1 hr, then 1069 nm femtosecond laser 450 mW, coverslip pressed): 25 kPa and 26.7 kPa
equilibrium modulus ([1]; Group 1B: 20% ribose PBS 1 hr, then 400 nm femtosecond laser, coverslip pressed): 60 kPa and 63.2 kPa
equilibrium modulus ([1]; Group 1C: 20% ribose PBS 1 hr, then 365 nm UVA lamp 1 hr, coverslip pressed): 100 kPa and 115.3 kPa
equilibrium modulus, 1.5 hr vs 3 hr irradiation ([1]; Group 2C: ribose + 365 nm UVA lamp 1.5 hours vs 3 hours): no significant difference in mechanical properties; also recorded: no different in equilibrium modulus
viscoelastic ratio, 3 hr vs 1.5 hr irradiation ([1]; Group 2C: ribose + 365 nm UVA lamp 3 hours vs 1.5 hours): significantly higher viscoelastic ratio; also recorded: significant difference
equilibrium modulus, fold of control's modulus ([1]; ribose + 400 nm laser at 100 mW vs ribose-only control): ~4.6 fold
equilibrium modulus, fold of control's modulus ([1]; ribose + 1060 nm laser at 450 mW vs ribose-only control): ~3.8 fold
equilibrium modulus, fold of paired control modulus ([1]; ribose + one-hour 365 nm UVA lamp vs ribose-only control): ~8.2 fold
equilibrium modulus ([1]; ribose-only paired controls, no light exposure): around 10 kPa
sustained thickness change, treated vs control ([2]; Group 2A, 1.5 hr treatment): no significant difference; also recorded: no significant immediate and sustained corneal apical thickness differences
immediate thickness change, treated vs loading-only control ([2]; Group 2A, 1.5 hr treatment, immediately after treatment): no significant thickness change difference; also recorded: no significant immediate and sustained corneal apical thickness differences
thickness increase compared to the baseline ([2]; Group 2A): above 100 μm
sustained thickness change, treated vs control ([2]; Group 2B, 3 hr treatment): no significant difference; also recorded: no significant immediate and sustained corneal apical thickness differences
thickness increase compared to the baseline ([2]; Group 2B): above 200 μm
immediate apical thickness increase compared to loading-only control ([2]; Group 2B: coverslip flattening + 3 hr ROS-Glycation CxL, immediately after treatment): 400 nm
